The subject of data set [1] is H1650 cells. Put plainly: Spheroid formation experiment, H1650 cells. Particulars: 2 μM, 0 to 8 days.
Data set [2] has as its system drug-resistant NSCLC cells (A549, H358, H1975, H1650). The data set can be described thus: MTT assay, summary over all four cell lines. It is filed as cell-based. The note with it: A549, H358, H1975, H1650; MTT, 72 h; read-out: IC50 values, range over the four cell lines. The procedure:
(§1) Cells were seeded at a density of 3×10^3 per well in 96-well plates, allowed to attach overnight, and treated with various concentrations of agent. After 72 h of treatment, 10 μL of MTT solution (5 mg/mL) was added to each well and cultured in the plate for 4 h. The crystallized formazan was dissolved in 100 μL of 10% (w/v) SDS and 0.01 mol/L HCl solution for 24 h, and then the value was read by spectrophotometry at 595 nm using a microplate reader.
(Tetrazolium dyes change colour on reduction, which living cells bring about.)

In data set [3] the test system is A549 cells. Put plainly: Transwell Matrigel invasion assay. The class given is cell-based. Particulars: 1 μM. As for the experimental part:
(§2) Cell migration and invasion assays were performed in a transwell chamber (Corning, #3422) with a pore size of 8 μm. Cells were treated with different concentrations of ATA and Erlotinib for 48 h, then harvested and resuspended in a serum-free medium. Cells (1×10^4) were added to the upper side of the transwell chamber and fresh medium containing 10% FBS was added to the lower side. Cells were allowed to migrate from the upper side to the lower side of the chamber at 37° C. for 24 h. Membranes from the cell chamber were fixed with 4% paraformaldehyde for 20 min. The cells remaining on the upper side of the membrane were gently removed with a cotton swab and stained with 1% crystal violet for 20 min to stain the cells migrating to the other side of the transwell chamber. The membrane was then cut and fixed on a glass slide. The migrated cells on each slide were imaged with a Leica M165-FC microscope. For the transwell invasion assay, a Matrigel solution (Corning, #356230) was diluted to one-thirtieth with serum-free medium and applied to the upper side of the precoated chamber for 2 h, after the Matrigel had solidified, the cells were added to the upper side of the transwell chamber. The following procedure is identical to the migration assay. Migrated and invaded cells were quantified using ImageJ software.

For data set [4], the system named is A549 cells. Put plainly: Transwell cell migration assay. The class given is cell-based. Particulars: 1 μM. The procedure: as §2
The subject of data set [5] is H1975 cells. Put plainly: MTT cell viability assay, H1975 cells. The class given is cell-based. The note with it: Homo sapiens, NCI-H1975, MTT, 72 h. The procedure: as §1
The nature of data set [6]: Body weight, deaths and toxicity in the xenograft study. Particulars: 25 mg/kg intraperitoneally every 3 days for 31 days. As for the experimental part: (§3) Cell line xenograft experiments were performed in 6-week-old female nude mice, 4×10^6 A549 cells were mixed 1:1 with matrigel-basement membrane matrix (Corning) and injected subcutaneously into nude mice. Tumors were allowed to grow to around […] and mice were randomly selected to receive treatment with ATA (25 mg/kg) or Erlotinib (25 mg/kg) intraperitoneally every 3 days for 31 days. ATA was formulated with 25% ethanol, 60% PEG300 (Sigma-Aldrich), and 15% Tween 80 (Sigma-Aldrich). Erlotinib was formulated in 5% DMSO, 30% PEG300, 5% Tween 80 and 60% H2O. Mouse body weight and tumor volume were measured every 3 days by a scale and caliper. Tumor volume (mm^3) was calculated using the formula. π/6×length (mm)×[width (mm)]^2. At least 6 mice in the control and treatment groups were evaluated during the study. All mice were sacrificed after 31 days of drug treatment, tumors were collected, and tumor weights were recorded. All animal studies were conducted in accordance with the requirements of the Animal Research Ethics Committee of Macao University and in compliance with all relevant ethical requirements.
(§4) To determine if ATA could also produce the same effect in vivo, this example injected A549 cells subcutaneously into nude mice to form tumor xenografts. Mice were randomly assigned to three groups. When the size of each tumor increased to a volume of approximately 100 mm^3, mice were injected intraperitoneally with vehicle control, ATA (25 mg/kg), or Erlotinib (25 mg/kg) every 3 days for 31 days. The tumor size and body weight of each mouse were measured every 3 days until the end of the animal experiment on day 31.

Data set [7] concerns A549 cell-derived xenograft tumors. The data set can be described thus: Mouse xenograft study. The class given is in vivo, nude mice. Particulars: 25 mg/kg intraperitoneally every 3 days, day 31. The procedure: as §3, §4
Data set [8] relates to H1975 cells. The data set can be described thus: Spheroid formation experiment, H1975 cells. It is filed as cell-based. The note with it: 2 μM, 0 to 8 days. The text has this:
The density of H1975 was 500 cells per well and the density of H1650 was 1000 cells per well in an ultra-low adhesion round bottom 96 well plate (Corning, #7007).

Another data set has as its system EGFR. Put plainly: Western blot, EGFR protein levels in drug-resistant NSCLC cells. The note with it: A549 and H1650 cells, 2 μM, 48 h. It is filed as cell-based. The procedure:
Cells were washed once with PBS and frozen in RIPA lysis buffer containing protease and phosphatase inhibitors (Sigma-Aldrich) for 30 min. After sonication and centrifugation, the total protein concentration was determined by protein assay using Bio-Rad concentrated dye reagent (Bio-Rad). Equal amounts of protein ([…]) from each sample were separated by SDS-PAGE and electrotransferred to nitrocellulose membranes (GE Healthcare). Detection was performed on the membrane with a 1:1000 dilution of specific primary antibody followed by incubation with a 1:2000 dilution of the HRP conjugated secondary antibody. Finally, immunoreactivity is detected with a chemiluminescent substrate (Clarity Western ECL substrate; Bio-Rad). […] Aurora A (#ab13824) and PLK1 (#ab189139) antibodies were from Abcam.
In general terms: Immunoblotting shows a protein as a band on a membrane.

Another data set has as its system H358 cells. Put plainly: MTT cell viability assay, H358 cells. It is filed as cell-based. The note with it: Homo sapiens, NCI-H358, MTT, 72 h. The procedure: as §1
Data set [9] has as its system H1650 cells. The data set can be described thus: MTT cell viability assay, H1650 cells. The class given is cell-based. The note with it: Homo sapiens, NCI-H1650, MTT, 72 h. The procedure: as §1
Data set [10] relates to A549 cells. Put plainly: MTT cell viability assay, A549 cells. The note with it: Homo sapiens, MTT, 72 h. The class given is cell-based. As for the experimental part: as §1
A further data set relates to A549 and H1650 cells. Put plainly: Protein synthesis rate (click-iT HPG Alexa Fluor 594 Protein Synthesis Assay Kit). It is filed as cell-based. The note with it: 2 μM, 48 h. As for the experimental part:
In FIG. 3 (A) is protein levels of p-Akt, Akt, p-mTOR, mTOR, p-p70S6K, p70S6K, p-S6RP, and S6RP determined by Western blot analysis for A549, H358, H1975, and H1650 cells treated with ATA (1 or 2 μM) for 48 h. (B) is A549 and H1650 cells treated with ATA (1 or 2 μM) or the protein synthesis inhibitor […] (CHX, 35 μM), respectively, for 48 h. The rate of protein synthesis was determined using the click-iT™ HPG Alexa Fluor™ 594 Protein Synthesis Assay Kit. The intensity of Texas Red fluorescence in the stained image represents the rate of protein synthesis. Quantification of the rate of protein synthesis is shown. ****P<0.0001 was based on a one-way analysis of variance followed by Tukey's multiple comparison test. Scale bar, 50 μm. […] Protein levels of p-p70S6K. p70S6K. p-S6RP, and S6RP were determined by Western blot analysis. […] The rate of protein synthesis was determined using the click-iT™ HPG Alexa Fluor™ 594 Protein Synthesis Assay Kit. The intensity of Texas Red fluorescence in the stained image represents the rate of protein synthesis. Quantification of the rate of protein synthesis is shown. *P<0.05 and **P<0.01 were based on a one-way analysis of variance followed by Tukey's multiple comparison test. […] Protein levels of p70S6K. p-p70S6K, S6RP, and p-S6RP were determined by Western blot analysis. […] Data are expressed as the mean±SD of three independent experiments.

Another data set deals with T1, p70S6K (Homo sapiens, UniProt P23443).
T1 construct: endogenous in cells; host or cells: A549, H358, H1975, H1650 for the Western blots
Put plainly: Western blot, p70S6K protein levels in drug-resistant NSCLC cells. The class given is cell-based. The note with it: A549 and H1650 cells, 2 μM, 48 h. As for the experimental part:
Cells were washed once with PBS and frozen in RIPA lysis buffer containing protease and phosphatase inhibitors (Sigma-Aldrich) for 30 min. After sonication and centrifugation, the total protein concentration was determined by protein assay using Bio-Rad concentrated dye reagent (Bio-Rad). Equal amounts of protein ([…]) from each sample were separated by SDS-PAGE and electrotransferred to nitrocellulose membranes (GE Healthcare). Detection was performed on the membrane with a 1:1000 dilution of specific primary antibody followed by incubation with a 1:2000 dilution of the HRP conjugated secondary antibody. Finally, immunoreactivity is detected with a chemiluminescent substrate (Clarity Western ECL substrate; Bio-Rad). EGFR (#4267S), MET (#8198S), p-Akt (#9271L), akt (#9272S), p-mTOR (#5536S), mTOR (#2983S), p-p70S6K (#9234S), p70S6K (#2708S), p-S6RP (#4857S), S6RP (#2217S), p-4E-BP1 (#9455S) antibodies. 4E-BP1 (#9644S), p53 (#2527S), p21 waf1/Cip1 (#2947S), survivin (#2808S), cyclin B1 (#12231S), cyclin D3 (#2936S) and GAPDH (#2118S) were purchased from Cell Signaling Technology. Aurora A (#ab13824) and PLK1 (#ab189139) antibodies were from Abcam.

Results on 3 molecules are retold here after US20240050449A1, “Use of Acetyltanshinone IIA in Preparation of Medicament for Treating Lung Cancer and Medicament for Treating Lung Cancer” (UNIVERSITY OF MACAU, priority 2022, published 2024).

The term IC50 denotes the point on the concentration scale where inhibition reaches its midpoint.

T1 sequence (P23443 whole entry): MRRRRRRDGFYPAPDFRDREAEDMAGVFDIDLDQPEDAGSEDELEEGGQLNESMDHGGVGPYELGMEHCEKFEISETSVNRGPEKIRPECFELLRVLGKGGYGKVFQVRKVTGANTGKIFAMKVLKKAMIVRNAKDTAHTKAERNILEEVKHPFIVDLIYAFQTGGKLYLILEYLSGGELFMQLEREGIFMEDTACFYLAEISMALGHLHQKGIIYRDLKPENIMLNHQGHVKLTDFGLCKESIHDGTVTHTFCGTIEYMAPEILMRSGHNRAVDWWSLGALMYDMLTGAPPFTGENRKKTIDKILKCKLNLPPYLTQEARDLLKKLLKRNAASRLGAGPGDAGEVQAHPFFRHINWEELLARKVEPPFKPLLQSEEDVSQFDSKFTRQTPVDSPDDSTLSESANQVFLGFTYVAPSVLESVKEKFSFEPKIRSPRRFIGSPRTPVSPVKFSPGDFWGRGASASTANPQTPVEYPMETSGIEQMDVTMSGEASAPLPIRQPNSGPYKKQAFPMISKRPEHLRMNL

As for `C#Cc1cccc(Nc2ncnc3cc(OCCOC)c(OCCOC)cc23)c1` [Erlotinib, reference compound], the “spheroid growth / sphere size” value with H1650 cells [1] was “less inhibition in H1650 cells than ATA”; with H1975 cells [8] it was “did not decrease but significantly increased”. The IC50 was 10 to 22 µM in data set [2]; 10.6 ± 1.27 µM in the data set on H1975 cells [5]; 21.5 ± 1.47 µM in the data set with H358 cells; 22.1 ± 0.59 µM in the data set on H1650 cells [9]; 19.6 ± 0.28 µM with A549 cells [10]. In the data set with A549 cells [3], the “reduction of invasion ability” value is “did not”. For the same molecule, the “reduction of migration ability” value with A549 cells [4] was “did not”. Further, in [6], the “deaths during the treatment period” value is “no mice died”. For the same molecule, the “weight of nude mice compared between groups” value in data set [6] is “no difference”. For the same molecule, the “reduction of tumor size compared to the control group” value in data set [7] is listed as 32.5%. In [7], the “reduction of tumor weight” value is “did not significantly reduce”. Also, the “protein levels of EGFR” value in the data set on EGFR is recorded as “significantly increased”.

`CO[C@H]1C[C@@H]2CC[C@@H](C)[C@@](O)(O2)C(=O)C(=O)N2CCCC[C@H]2C(=O)O[C@H]([C@H](C)C[C@@H]2CC[C@@H](O)[C@H](OC)C2)CC(=O)[C@H](C)/C=C(\C)[C@@H](O)[C@@H](OC)C(=O)[C@H](C)C[C@H](C)/C=C/C=C/C=C/1C` [Rapamycin, rapamycin]: the “reduction (inhibition ratio) of protein synthesis” value in the data set with A549 and H1650 cells is 25-28%.

For the molecule `CCc1cncnc1N1CCN(Cc2nc3ccc(C(F)(F)F)cc3[nH]2)CC1` [PF-4708671, reference compound], the “levels of p70S6K” value on p70S6K was “did not decrease”. Also, the “reduction (inhibition ratio) of protein synthesis” value in the data set on A549 and H1650 cells was “did not affect”.
